In brackets after ≈: the same amount, converted by molar mass.
Test system: B16F10 melanoma cells
Assay: Cytotoxic and antiproliferative effects by the MTT colorimetric method on B16F10 melanoma cells
Type: cell-based, murine
Details: Mus musculus, B16-F10, 24 h, compound diluted in Miglyol 810; 24 hour; from the linear equation; read-out: IC50
Text: Analysis of Cytotoxic and Antiproliferative Effects of HB-1 Compound and Miglyol 810® as Control by the MTT Colorimetric Method on B16F10 Melanoma Cells.
The colorimetric methodology for the respiratory route of mitochondria MTT (3-(4,5-dimethylthiazol-2-yl)2,5-diphenyl tetrazolium bromide) was used, as described by MOSMANN (1983). This method is based on the reduction of MTT to formazan by living cells. After growth and in vitro confluence of normal and tumoral cells, different concentrations of the HB-1 compound diluted in Miglyol 810® and the diluent-control (Miglyol 810®) have been added on the adhering cells, incubated for 24 hour. After the referred period, 10 μl of MTT (5 mg/mL) were added and incubated for 3 hours in stove with 5% CO2 at 37° C. After this period, the content of the culture plates were centrifuged for 2 minutes at 1800 rpm, at 4° C., the supernatant was removed and 100 μL of dimethyl sulfoxide (DMSO) were added to dissolve formazan crystals previously constituted and precipitated. The absorbances were obtained by an ELISA reader at 540 nm (TiterTek Multiskan) wavelength, with the results obtained shown in FIG. 12.
IC50 Evaluation for B16F10 Melanoma Cells, Obtained from the Linear Equation.

Compound: COc1cc(C=CC(=O)C=Cc2ccc(O)c(OC)c2)ccc1O [HB-1, 1,5-Bis-(4-hydroxy-3-methoxy-phenyl)-penta-1,4-dien-3-one]
- IC50: 7 µg/mL (≈ 21.4 µM)
